Assay results from patent US20250352500A1, “USE OF PHENOLIC ACIDS DERIVATIVES IN TREATING ISCHEMIC STROKE” (LANZHOU UNIVERSITY, priority 2022, published 2025).

Columns and labels:
Assay type in all cases: in vivo, male C57/BL mice
MCAO model mice = experiment: Body weight change after ischemia-reperfusion
Description: (§1) Grouping and administration method: Male C57/BL mice weighing 23±1 g were randomly divided into sham operation group (SHAM), model group (MCAO), compound 2 group (100 mg/kg), and compound 1 group (50 mg/kg), with 10 mice in each group. Mice in the SHAM group underwent vascular isolation, but no […] was administered, and no treatment was given before or after surgery. The model group mice were constructed with MCAO models and were not treated before and after surgery. The treatment group was treated with compound 2 or compound 1 on the basis of the model group. Mice with a neurological score of 0 after reperfusion and those that died before 72 hours post-surgery were excluded. The administration time for animal behavior tests was seven times at 0 h, 1 day, 2 days, 3 days, 4 days, 5 days, and 6 days after reperfusion, while the administration time for other experiments was three times at 0 h, 1 day, and 2 days after reperfusion. The drug was administered through the tail vein, and the sham operation group and model group were given equal amounts of saline.
At the same time, the weight change and survival rate of mice after ischemia-reperfusion were analyzed.

IL-1β = experiment: ELISA of IL-1β in brain homogenate; details: 72 h, three days of administration, compound 2 100 mg/kg, compound 1 50 mg/kg
Description: as §1, with “The administration time for animal behavior tests was seven times at 0 h, 1 day, 2 days, 3 days, 4 days, 5 days, and 6 days after reperfusion, while the administration time for other experiments was three times at 0 h, 1 day, and 2 days after reperfusion. The drug was administered through the tail vein, and the sham operation group and model group were given equal amounts of saline.” left out
(§2) To investigate the effect of compounds on the expression of inflammatory factors after ischemia-reperfusion, this study used immunofluorescence experiments to observe the expression of TNF-α, IL-1β, IL-6, iNOS, and COX2 proteins in brain tissue. […] The concentrations of TNF-α, IL-1β, and IL-6 in brain homogenate were detected by enzyme-linked immunosorbent assay (ELISA), and the expression level of TNF-α protein in brain tissue was detected by Western blot.
(§3) After 72 hours of ischemia-reperfusion, the expression levels of inflammatory factors TNF-α, IL-1β, and IL-6 in the mouse brain homogenate were detected.

[1] = tested on: TNF-α, IL-1β, IL-6, iNOS, and COX2; experiment: Immunofluorescence of pro-inflammatory factors in brain tissue; details: 72 h, P<0.001; for Number of pro-inflammatory factor-positive cells compared with MCAO group: three days of administration, compound 2 100 mg/kg, compound 1 50 mg/kg
Description: as §1
To investigate the effect of compounds on the expression of inflammatory factors after ischemia-reperfusion, this study used immunofluorescence experiments to observe the expression of TNF-α, IL-1β, IL-6, iNOS, and COX2 proteins in brain tissue. RT-qPCR experiments were used to detect the mRNA gene expression of pro-inflammatory factors TNF-α, IL-1β, IL-6, iNOS, and COX2 in the sham operation group, model group, compound 2 group, and compound 1 group. The concentrations of TNF-α, IL-1β, and IL-6 in brain homogenate were detected by enzyme-linked immunosorbent assay (ELISA), and the expression level of TNF-α protein in brain tissue was detected by Western blot.
After 72 hours of ischemia-reperfusion, the expression changes of inflammatory factors such as TNF-α, IL-1β, IL-6, iNOS, and COX2 in brain regions were analyzed by immunofluorescence staining. […]

HIF-1α [2] = experiment: RT-qPCR of HIF-1α mRNA in brain tissue; details: 72 h; for HIF-1α mRNA expression level reduced compared with MCAO group: three days of administration, compound 2 100 mg/kg, compound 1 50 mg/kg
Description: as §1
(§4) HIF-1α is a sensitive regulator of oxygen homeostasis, rapidly inducing its expression after hypoxia-ischemia. It plays a wide range of roles in the pathophysiology of stroke, including neuronal survival, neuroinflammation, angiogenesis, glucose metabolism, and blood-brain barrier regulation. It can not only produce specific sensations in the case of hypoxia, but also facilitate the maintenance of oxygen homeostasis in the body. […]
After 72 hours of ischemia-reperfusion, the mRNA expression level of HIF-1α in brain tissue was detected and analyzed by RT-qPCR. […] Compared with the compound 1 group, the expression level of HIF-1α in the compound 2 group decreased by 53±11% (P<0.001). n=3, data are presented as mean±SEM, analyzed using one-way ANOVA, and subjected to Tukey's HSD test. *P<0.05, **P<0.01, ***P<0.001. ^#P<0.05, ^##P<0.01, ^###P<0.001. * indicates a comparison with the SHAM group, indicates a comparison with the Compound 2 group.

TNF-α [3] = experiment: RT-qPCR of TNF-α mRNA in brain tissue; details: 72 h, three days of administration, compound 2 100 mg/kg, compound 1 50 mg/kg, P<0.05
Description: as §1, with “The administration time for animal behavior tests was seven times at 0 h, 1 day, 2 days, 3 days, 4 days, 5 days, and 6 days after reperfusion, while the administration time for other experiments was three times at 0 h, 1 day, and 2 days after reperfusion. The drug was administered through the tail vein, and the sham operation group and model group were given equal amounts of saline.” left out
as §2
After 72 hours of ischemia-reperfusion, the mRNA expression levels of TNF-α, IL-1β, IL-6, iNOS, and COX2 in brain tissue were detected and analyzed by RT-qPCR. […]

TNF-α [4] = experiment: ELISA of TNF-α in brain homogenate; details: 72 h, three days of administration, compound 2 100 mg/kg, compound 1 50 mg/kg
Description: as §1, with “The administration time for animal behavior tests was seven times at 0 h, 1 day, 2 days, 3 days, 4 days, 5 days, and 6 days after reperfusion, while the administration time for other experiments was three times at 0 h, 1 day, and 2 days after reperfusion. The drug was administered through the tail vein, and the sham operation group and model group were given equal amounts of saline.” left out
as §2, §3

IL-6 = experiment: ELISA of IL-6 in brain homogenate; details: 72 h, three days of administration, compound 2 100 mg/kg, compound 1 50 mg/kg
Description: as §1, with “The administration time for animal behavior tests was seven times at 0 h, 1 day, 2 days, 3 days, 4 days, 5 days, and 6 days after reperfusion, while the administration time for other experiments was three times at 0 h, 1 day, and 2 days after reperfusion. The drug was administered through the tail vein, and the sham operation group and model group were given equal amounts of saline.” left out
as §2, §3

HIF-1α [5] = experiment: HIF-1α protein Western blot in brain tissue; details: 72 h; for HIF-1α protein expression reduced compared with MCAO model group: three days of administration, compound 2 100 mg/kg, compound 1 50 mg/kg
Description: as §1, §4
After 72 hours of ischemia-reperfusion, the expression level of HIF-1α protein in brain tissue was detected by Western blot. […] In this experiment, β-actin was used as the internal reference protein. n=3, data are mean±SEM, analyzed using one-way ANOVA and Tukey's HSD test. *P<0.05, **P<0.01, ***P<0.001. ^#P<0.05, ^##P<0.01, ^###P<0.001. * indicates a comparison with the SHAM group, ^# indicates a comparison with the compound 2 group.

[6] = compound 2 100 mg/kg vs compound 1 50 mg/kg

Row | SMILES | Body weight compared with the compound 2 group (MCAO model mice; 7th day after reperfusion, compound 1 50 mg/kg vs compound 2 100 mg/kg, P<0.05) | Decrease in IL-1β expression compared with MCAO group (IL-1β) | Number of pro-inflammatory factor-positive cells compared with MCAO group [1] | HIF-1α mRNA expression level reduced compared with MCAO group (HIF-1α [2]) | TNF-α mRNA expression compared with MCAO group (TNF-α [3]) | Decrease in TNF-α expression compared with MCAO group (TNF-α [4]) | Decrease in IL-6 expression compared with MCAO group (IL-6) | HIF-1α protein expression reduced compared with MCAO model group (HIF-1α [5]) | Body weight compared with MCAO group (MCAO model mice; 7th day of reperfusion, 100 mg/kg tail vein) | Density of pro-inflammatory factor-positive cells compared with the compound 1 group [1, 6] | HIF-1α mRNA expression level decreased compared with the compound 1 group (HIF-1α [2]; compound 2 100 mg/kg vs compound 1 50 mg/kg, P<0.001) | HIF-1α protein expression level compared with the compound 1 group (HIF-1α [5]; [6])
1 | O=C(O)c1cc(O)ccc1O [compound 1] | significantly decreased | reduced to varying degrees | significantly decreased | 41±13% | significantly reduced | reduced to varying degrees | reduced to varying degrees | 46±10% | – | – | – | –
2 | O=C(O)c1cc(OP(=O)(O)O)ccc1OP(=O)(O)O [compound 2] | – | 32±9% | significantly decreased | 75±17% | significantly reduced | 40±10% | 40±10% | 53±10% | inhibited the decrease in body weight | significantly reduced | 53±11% | significantly reduced
